Measured values published in publication PMC9693073, “Two Subgroups within the GH43_36 α-L-Arabinofuranosidase Subfamily Hydrolyze Arabinosyl from Either Mono-or Disubstituted Xylosyl Units in Wheat Arabinoxylan” (International Journal of Molecular Sciences, 2022).

Target: T1, PoABF62 (Penicillium oxalicum, UniProt A0A2R4KZP3)
T1 construct: heterologously produced (fungal host), purified, supplied by Novozymes
Assay: HPAEC-PAD of hydrolysis products
Type: biochemical
Conditions: 10 mM ammonium acetate pH 5.0, 40 °C, 24 h, 100 μg/mL substrate

T1 sequence (A0A2R4KZP3 31-331): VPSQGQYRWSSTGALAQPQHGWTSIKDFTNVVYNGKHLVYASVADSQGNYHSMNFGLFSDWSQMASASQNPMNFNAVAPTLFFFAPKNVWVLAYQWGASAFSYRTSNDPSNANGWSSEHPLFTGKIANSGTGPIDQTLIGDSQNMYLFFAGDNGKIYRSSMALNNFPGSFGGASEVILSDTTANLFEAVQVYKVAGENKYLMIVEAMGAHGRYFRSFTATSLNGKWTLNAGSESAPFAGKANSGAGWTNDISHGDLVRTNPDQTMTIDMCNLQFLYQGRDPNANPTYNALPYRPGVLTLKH

Row | Structure (SMILES) | HPAEC-PAD of hydrolysis products | HPAEC-PAD of hydrolysis products (XA2XX/XA3XX mixture)
1 | OC[C@@H]1O[C@@H](O[C@H]2[C@H](O[C@@H]3CO[C@@H](O[C@@H]4COC(O)[C@H](O)[C@H]4O)[C@H](O)[C@H]3O)OC[C@@H](O)[C@@H]2O)[C@H](O)[C@H]1O (stereo partly drawn) [A2XX, 2-α-L-arabinofuranosyl-xylotriose] | PoABF62 and MgABF51 were highly active on all monosubstituted AXOS | 
2 | OC[C@@H]1O[C@@H](O[C@@H]2[C@@H](O)[C@H](O[C@@H]3CO[C@@H](O[C@@H]4COC(O)[C@H](O)[C@H]4O)[C@H](O)[C@H]3O)OC[C@H]2O[C@@H]2OC[C@@H](O)[C@H](O)[C@H]2O)[C@H](O)[C@H]1O (stereo partly drawn) [XA3XX, 3-α-L-arabinofuranosyl-xylotetraose] |  | PoABF62 and MgABF51 were highly active on all monosubstituted AXOS
